Measured values from patent US20020086865A1, “Use of growth hormone secretagogues for stimulating or increasing appetite” (priority 2000, published 2002).
Square brackets hold non-standard residues; d marks the D form. Peptide text beside a SMILES is read from it. dTrp(2-Me) = Cc1[nH]c2ccccc2c1C[C@@H](N)C(=O)O; d2Nal = N[C@H](Cc1ccc2ccccc2c1)C(=O)O

Experiments:
free-feeding rats = settings: intracerebroventricular administration; cited from earlier work
[1] = test system: young women with anorexia nervosa; settings: cited from earlier work
satiated rats = settings: s.c.; cited from earlier work
[2] = orally active; cited from earlier work
rats = settings: intracerebroventricular; cited from earlier work
[3] = test system: healthy, young male subjects; settings: 100 mg single oral dose in a solution of water, fasted state; four subjects on active
Description: The test compound or placebo was administered orally in a solution of water to the subjects in a fasted state. The doses evaluated were 0.3, 1, 3, 10, 30 and 100 mg of the test compound or placebo. Each participant was studied at only one dose level.

C[C@H](NC(=O)[C@@H](Cc1ccc2ccccc2c1)NC(=O)[C@@H](C)N)C(=O)N[C@@H](Cc1c[nH]c2ccccc12)C(=O)N[C@H](Cc1ccccc1)C(=O)N[C@@H](CCCCN)C(N)=O [KP-102] (H-[dA][d2Nal]AW[dF]K-NH2)
food intake (free-feeding rats): increased food intake

recombinant growth hormone: recombinant growth hormone
IGF-1 levels [1]: normalizes IGF-1 levels
body weight [1]: increases body weight
eating behavior [1]: improves eating behavior

Cc1[nH]c2ccccc2c1C[C@@H](NC(=O)[C@@H](N)Cc1cnc[nH]1)C(=O)N[C@@H](C)C(=O)N[C@@H](Cc1c[nH]c2ccccc12)C(=O)N[C@H](Cc1ccccc1)C(=O)N[C@@H](CCCCN)C(N)=O [hexarelin] (H-H[dTrp(2-Me)]AW[dF]K-NH2)
GH release (satiated rats): dose dependently stimulated
feeding behavior (satiated rats): dose dependently stimulated

CC(C)(N)C(=O)N[C@H](COCc1ccccc1)C(=O)N1CCC2(CC1)CN(S(C)(=O)=O)c1ccccc12 [MK-677]
diet-induced catabolism [2]: reverses diet-induced catabolism

GHRP-6
eating (rats): stimulated eating
plasma growth hormone responses (rats): without affecting plasma growth hormone responses
GH release (satiated rats): dose dependently stimulated
feeding behavior (satiated rats): dose dependently stimulated

CC(C)(N)C(=O)N[C@H](COCc1ccc(F)cc1F)C(=O)N1CCC2=NN(CC(F)(F)F)C(=O)[C@]2(Cc2ccccn2)C1.O=C(O)C(O)C(O)C(=O)O [test compound, (L)-(+)-tartaric acid salt of 2-amino-N-(1-(R)-(2,4-difluoro-benzyloxymethyl)-2-oxo-2-(3-oxo-3a-(R)-pyridin-2-ylmethyl-2-(2,2,2-trifluoro-ethyl)-2,3,3a,4,6,7-hexahydro-pyrazolo-[4,3-c]pyridin-5-yl)-ethyl)-2-methyl-propionamide]
subjects who self-reported feeling hungry (case report forms) [3]: two of the four subjects
